Literature values in patent publication US20190201418A1, “TREATMENT OF UTERINE FIBROIDS BY INTRAVAGINAL ADMINISTRATION OF A LOW DOSE OF SELECTIVE PROGESTERONE RECEPTOR MODULATOR (SPRM), ANTI-PROGESTIN, OR ANTI-PROGESTATIONAL AGENT” (ARSTAT, INC., priority 2011, published 2019).

How the values were obtained:
liver enzymes = conditions: oral
[1] = test system: endometrial lining of the uterus; conditions: oral
glucocorticoid blockade = conditions: in vivo
[2] = test system: symptomatic uterine fibroids; conditions: oral 5-mg and 10-mg tablets, Phase III
[3] = oral mifepristone 10 mg/day or higher

In the case of `COCC(=O)[C@@]1(OC(C)=O)CC[C@H]2[C@@H]3CCC4=CC(=O)CCC4=C3[C@@H](c3ccc(N(C)C)cc3)C[C@@]21C` [CDB-4124], the “safety finding leading to suspension of the Phase III studies” value (liver enzymes) is listed as “significant increases in liver enzymes”.

For `COC[C@]1(OC)CC[C@H]2[C@@H]3CCC4=CC(=O)CCC4=C3[C@@H](c3ccc(/C=N/O)cc3)C[C@@]21C` [asoprisnil], the “safety finding leading to termination of the Phase III studies” value [1] is given as “changes in the endometrial lining of the uterus that resulted in additional invasive procedures in some patients”.

For `CC#C[C@]1(O)CC[C@H]2[C@@H]3CCC4=CC(=O)CCC4=C3[C@@H](c3ccc(N(C)C)cc3)C[C@@]21C` [mifepristone], the “dose at which glucocorticoid blockade is reported” value (glucocorticoid blockade) is listed as ≥ 50 mg, the “reduction of uterine volume and incidence of amenorrhea” value (uterine fibroids; oral mifepristone 2.5 mg/day) is listed as “appreciably smaller reduction of uterine volume and a lower incidence of amenorrhea” and the “ability to reduce uterine volume and eliminate fibroid-related symptoms” value (uterine fibroids; oral mifepristone 5 mg) is listed as “limited”. The “incidence of side effects (endometrial hyperplasia, hot flashes, elevated liver enzymes)” value (uterine fibroids; [3]) was “seems to be greater than desired” and the “reduction of uterine and fibroid volumes and related symptoms” value (uterine fibroids; [3]) was “effective in the reduction of uterine and fibroid volumes and related symptoms”.

In the case of `CC(=O)O[C@]1(C(C)=O)CC[C@H]2[C@@H]3CCC4=CC(=O)CCC4=C3[C@@H](c3ccc(N(C)C)cc3)C[C@@]21C` [ulipristal acetate], the “efficacy and safety in the treatment of symptomatic uterine fibroids” value [2] is given as “confirmed the efficacy and safety”.
